Read-outs that look alike come from different tables or passages of the source.
Assays:
5-HT2B (h) = molecular target: T1, 5-HT2B (h) (Homo sapiens, UniProt P41595); assay: Competition assay to measure binding affinity at 5-HT2B receptor; conditions: test ligand 10 μM; [3H]mesulergine 2 nM
T1 construct: host or cells: CHO cells

5-HT7 (h) = molecular target: T2, 5-HT7 (h) (Homo sapiens, UniProt P34969); assay: Competition assay to measure binding affinity at 5-HT7 receptor; conditions: test ligand 10 μM; [3H]LSD 4 nM
T2 construct: host or cells: HEK-293 cells

5-HT1B (h) = molecular target: T3, 5-HT1B (h) (Homo sapiens, UniProt P28222); assay: Competition assay to measure binding affinity at 5-HT1B receptor; conditions: test ligand 10 μM; [3H]GR125743 1 nM
T3 construct: host or cells: Chem-1 (RBL) cells

5-HT1A receptor [1] = molecular target: T4, 5-HT1A receptor (Homo sapiens, UniProt P08908); assay: 5-HT1A receptor radioligand competition assay (SPA); type: binding; conditions: competition with 0.5 nM 8-hydroxy-DPAT [3H]; test compound 3 nM to 1 mM; read-out: 5-HT1A, Ki
T4 construct: purchased Perkin Elmer 6110501400UA
T4 sequence (P08908 1-422): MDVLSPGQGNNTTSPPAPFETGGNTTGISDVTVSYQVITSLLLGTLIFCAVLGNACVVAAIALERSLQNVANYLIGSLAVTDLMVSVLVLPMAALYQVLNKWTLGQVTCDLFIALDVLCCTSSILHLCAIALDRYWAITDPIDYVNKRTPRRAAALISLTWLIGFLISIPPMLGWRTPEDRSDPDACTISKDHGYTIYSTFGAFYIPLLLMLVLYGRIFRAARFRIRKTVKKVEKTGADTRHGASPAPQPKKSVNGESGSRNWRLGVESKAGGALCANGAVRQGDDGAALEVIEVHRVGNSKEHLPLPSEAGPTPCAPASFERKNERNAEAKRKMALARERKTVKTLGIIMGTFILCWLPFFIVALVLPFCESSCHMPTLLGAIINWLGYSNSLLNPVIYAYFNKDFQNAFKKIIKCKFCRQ

5-HT2A receptor = 5-HT2A receptor (Homo sapiens, UniProt P28223); assay: 5-HT2A receptor radioligand competition assay (SPA)
5-HT2C (h) = molecular target: T5, 5-HT2C (h) (Homo sapiens, UniProt P28335); assay: Competition assay to measure binding affinity at 5-HT2C receptor; conditions: test ligand 10 μM; [125I](±)DOI 0.1 nM
T5 construct: host or cells: HEK-293 cells
T5 sequence (P28335 33-458): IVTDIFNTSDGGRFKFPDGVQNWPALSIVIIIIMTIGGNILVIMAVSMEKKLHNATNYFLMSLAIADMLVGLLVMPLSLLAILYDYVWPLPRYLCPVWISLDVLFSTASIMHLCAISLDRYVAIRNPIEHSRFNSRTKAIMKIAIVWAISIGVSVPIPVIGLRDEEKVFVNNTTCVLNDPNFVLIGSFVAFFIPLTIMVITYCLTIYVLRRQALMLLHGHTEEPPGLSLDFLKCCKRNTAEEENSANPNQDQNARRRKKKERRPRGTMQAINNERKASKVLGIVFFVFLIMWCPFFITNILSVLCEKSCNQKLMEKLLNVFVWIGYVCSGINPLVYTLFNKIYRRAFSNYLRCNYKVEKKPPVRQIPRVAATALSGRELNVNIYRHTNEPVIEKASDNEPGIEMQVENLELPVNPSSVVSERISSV

MT1 (ML1A) (h) = molecular target: T6, MT1 (ML1A) (h) (Homo sapiens, UniProt P48039); assay: Competition assay to measure binding affinity at MT1 receptor; conditions: test ligand 10 μM; [125I]2-iodomelatonin 0.01 nM
T6 construct: host or cells: CHO cells

5-HT1D (r) = molecular target: T7, 5-HT1D (r) (Rattus norvegicus, UniProt P28565); assay: Competition assay to measure binding affinity at 5-HT1D receptor; conditions: test ligand 10 μM; [3H]serotonin 1 nM
T7 construct: host or cells: CHO cells

D3 (h) = molecular target: T8, D3 (h) (Homo sapiens, UniProt P35462); assay: Competition assay to measure binding affinity at D3 receptor; conditions: test ligand 10 μM; [3H]methylspiperone […]
T8 construct: host or cells: CHO cells

alpha2A (h) = molecular target: T9, alpha2A (h) (Homo sapiens, UniProt P08913); assay: Competition assay to measure binding affinity at alpha2A receptor; conditions: test ligand 10 μM, [3H]RX 821002 1 nM; for inhibition at 10 µM: read-out: α-2A, percent of control-specific binding
T9 construct: host or cells: CHO cells
T9 sequence (P08913 1-465): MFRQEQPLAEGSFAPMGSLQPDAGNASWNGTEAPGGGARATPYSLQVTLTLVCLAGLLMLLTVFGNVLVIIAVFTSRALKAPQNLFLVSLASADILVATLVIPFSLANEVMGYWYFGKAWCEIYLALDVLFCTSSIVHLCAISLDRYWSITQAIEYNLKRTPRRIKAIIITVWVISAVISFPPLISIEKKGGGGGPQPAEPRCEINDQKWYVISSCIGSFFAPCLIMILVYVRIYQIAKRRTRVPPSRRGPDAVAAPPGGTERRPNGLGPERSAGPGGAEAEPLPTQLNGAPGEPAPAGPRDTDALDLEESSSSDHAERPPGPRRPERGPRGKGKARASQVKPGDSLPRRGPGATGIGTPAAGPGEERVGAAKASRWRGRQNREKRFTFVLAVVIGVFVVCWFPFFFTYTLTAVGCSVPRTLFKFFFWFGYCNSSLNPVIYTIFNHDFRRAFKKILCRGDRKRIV

5-HT1A receptor [2] = molecular target: T4, 5-HT1A receptor; assay: Functional 5-HT1A receptor cAMP assay in CHO-K1/5-HT1A/Gα15 cells; type: cell-based; conditions: for 5-HT1A receptor engagement (change in cAMP levels), in words: +5-HT1A cells, 4 μM forskolin, FIGS. 37B-37H
DAT (h) = molecular target: T10, DAT (h) (Homo sapiens, UniProt Q01959); assay: Competition assay to measure binding affinity at dopamine transporter (DAT); conditions: test ligand 10 μM; [3H]BTCP 4 nM
T10 construct: host or cells: CHO cells

[3] = molecular target: T11, human serotonin transporter (SERT) (Homo sapiens, UniProt P31645); assay: biochemical; type: binding
T11 construct: purchased PerkinElmer RBHSTM400UA

D2 (h) = molecular target: T12, D2 (h) (Homo sapiens, UniProt P14416); assay: Competition assay to measure binding affinity at D2L receptor; conditions: test ligand 10 μM; [3H]methylspiperone 0.3 nM
T12 construct: host or cells: HEK-293 cells

NET (h) = molecular target: T13, NET (h) (Homo sapiens, UniProt P23975); assay: Competition assay to measure binding affinity at norepinephrine transporter (NET); conditions: test ligand 10 μM; [3H]nisoxetine 1 nM
T13 construct: host or cells: CHO cells
T13 sequence (P23975 whole entry): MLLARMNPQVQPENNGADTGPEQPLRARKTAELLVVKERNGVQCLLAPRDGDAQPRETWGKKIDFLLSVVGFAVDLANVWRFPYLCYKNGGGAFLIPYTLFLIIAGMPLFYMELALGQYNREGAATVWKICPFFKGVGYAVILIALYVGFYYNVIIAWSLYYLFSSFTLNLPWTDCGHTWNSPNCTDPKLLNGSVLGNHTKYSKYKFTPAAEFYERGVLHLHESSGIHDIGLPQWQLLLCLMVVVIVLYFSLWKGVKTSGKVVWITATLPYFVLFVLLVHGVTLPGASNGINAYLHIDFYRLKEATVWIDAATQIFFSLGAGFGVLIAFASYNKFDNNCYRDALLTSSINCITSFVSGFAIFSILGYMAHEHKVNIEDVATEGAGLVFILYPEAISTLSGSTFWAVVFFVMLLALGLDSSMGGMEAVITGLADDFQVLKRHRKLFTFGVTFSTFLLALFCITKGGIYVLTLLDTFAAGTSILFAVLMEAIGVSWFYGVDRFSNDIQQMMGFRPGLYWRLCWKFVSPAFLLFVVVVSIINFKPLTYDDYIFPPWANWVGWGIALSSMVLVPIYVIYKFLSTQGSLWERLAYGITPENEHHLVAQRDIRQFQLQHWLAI

5-HT2A receptor, sequence (P28223 whole entry): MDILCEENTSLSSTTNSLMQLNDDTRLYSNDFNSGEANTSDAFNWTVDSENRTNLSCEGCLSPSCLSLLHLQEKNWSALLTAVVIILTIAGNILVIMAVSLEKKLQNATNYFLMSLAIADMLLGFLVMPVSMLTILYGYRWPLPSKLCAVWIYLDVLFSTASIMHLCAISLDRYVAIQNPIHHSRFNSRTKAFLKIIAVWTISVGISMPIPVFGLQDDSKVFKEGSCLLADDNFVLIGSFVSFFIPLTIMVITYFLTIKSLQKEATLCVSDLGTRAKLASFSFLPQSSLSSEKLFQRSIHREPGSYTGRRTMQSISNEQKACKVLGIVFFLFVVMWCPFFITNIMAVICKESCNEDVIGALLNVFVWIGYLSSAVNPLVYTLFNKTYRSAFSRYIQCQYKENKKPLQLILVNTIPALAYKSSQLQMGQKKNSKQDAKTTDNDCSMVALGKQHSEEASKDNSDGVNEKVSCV
T2 sequence (P34969 whole entry): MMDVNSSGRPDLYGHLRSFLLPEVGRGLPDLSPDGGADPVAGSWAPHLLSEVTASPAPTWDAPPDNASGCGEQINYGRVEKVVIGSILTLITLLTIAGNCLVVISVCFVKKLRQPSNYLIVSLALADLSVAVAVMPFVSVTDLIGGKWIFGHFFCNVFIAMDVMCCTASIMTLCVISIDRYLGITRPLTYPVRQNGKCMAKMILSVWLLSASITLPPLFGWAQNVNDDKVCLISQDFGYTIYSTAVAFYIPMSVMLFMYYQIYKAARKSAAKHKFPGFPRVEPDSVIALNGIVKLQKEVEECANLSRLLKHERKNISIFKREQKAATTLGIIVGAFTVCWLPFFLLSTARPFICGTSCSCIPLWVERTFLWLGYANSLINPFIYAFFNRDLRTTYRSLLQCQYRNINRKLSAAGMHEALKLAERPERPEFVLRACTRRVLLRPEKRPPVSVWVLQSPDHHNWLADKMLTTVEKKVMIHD
T3 sequence (P28222 whole entry): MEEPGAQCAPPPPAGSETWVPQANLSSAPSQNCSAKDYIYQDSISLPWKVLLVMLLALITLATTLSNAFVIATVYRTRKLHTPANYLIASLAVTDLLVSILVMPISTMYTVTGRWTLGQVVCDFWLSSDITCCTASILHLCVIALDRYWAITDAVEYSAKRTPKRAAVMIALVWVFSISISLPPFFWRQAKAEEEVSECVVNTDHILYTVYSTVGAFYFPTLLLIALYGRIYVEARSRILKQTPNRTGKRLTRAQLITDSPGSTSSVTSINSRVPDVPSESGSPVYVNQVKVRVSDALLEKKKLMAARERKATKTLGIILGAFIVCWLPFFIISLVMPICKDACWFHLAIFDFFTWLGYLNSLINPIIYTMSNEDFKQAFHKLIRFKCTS
T1 sequence (P41595 whole entry): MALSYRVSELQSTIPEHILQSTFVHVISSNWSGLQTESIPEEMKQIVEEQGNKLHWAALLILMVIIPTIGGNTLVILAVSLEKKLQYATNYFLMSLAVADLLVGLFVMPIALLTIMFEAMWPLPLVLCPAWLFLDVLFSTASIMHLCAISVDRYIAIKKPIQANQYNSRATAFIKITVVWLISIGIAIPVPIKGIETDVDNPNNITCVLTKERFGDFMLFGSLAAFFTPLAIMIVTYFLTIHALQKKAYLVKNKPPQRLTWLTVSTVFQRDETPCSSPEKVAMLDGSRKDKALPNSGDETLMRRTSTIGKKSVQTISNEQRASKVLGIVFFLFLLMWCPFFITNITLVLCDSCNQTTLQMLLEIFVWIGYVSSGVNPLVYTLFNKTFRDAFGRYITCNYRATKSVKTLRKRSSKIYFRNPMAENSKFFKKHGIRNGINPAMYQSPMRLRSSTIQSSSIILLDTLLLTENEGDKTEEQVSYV
T10 sequence (Q01959 whole entry): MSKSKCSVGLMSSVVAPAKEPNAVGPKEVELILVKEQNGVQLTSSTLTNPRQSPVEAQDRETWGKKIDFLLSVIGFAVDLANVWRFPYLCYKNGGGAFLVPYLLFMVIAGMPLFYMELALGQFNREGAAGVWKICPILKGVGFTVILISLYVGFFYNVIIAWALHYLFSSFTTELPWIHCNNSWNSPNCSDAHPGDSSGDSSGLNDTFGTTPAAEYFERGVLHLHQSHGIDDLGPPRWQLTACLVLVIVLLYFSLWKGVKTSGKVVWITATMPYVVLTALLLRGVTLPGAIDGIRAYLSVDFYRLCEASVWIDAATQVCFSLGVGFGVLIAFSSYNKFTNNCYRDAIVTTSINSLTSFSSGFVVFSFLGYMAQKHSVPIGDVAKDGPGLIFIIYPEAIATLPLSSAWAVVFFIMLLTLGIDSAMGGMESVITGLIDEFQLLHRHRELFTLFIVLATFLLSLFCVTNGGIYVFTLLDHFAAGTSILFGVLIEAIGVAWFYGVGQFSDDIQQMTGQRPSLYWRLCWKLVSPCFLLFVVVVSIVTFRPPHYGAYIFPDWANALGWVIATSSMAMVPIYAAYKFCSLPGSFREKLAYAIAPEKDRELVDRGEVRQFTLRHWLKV
T11 sequence (P31645 whole entry): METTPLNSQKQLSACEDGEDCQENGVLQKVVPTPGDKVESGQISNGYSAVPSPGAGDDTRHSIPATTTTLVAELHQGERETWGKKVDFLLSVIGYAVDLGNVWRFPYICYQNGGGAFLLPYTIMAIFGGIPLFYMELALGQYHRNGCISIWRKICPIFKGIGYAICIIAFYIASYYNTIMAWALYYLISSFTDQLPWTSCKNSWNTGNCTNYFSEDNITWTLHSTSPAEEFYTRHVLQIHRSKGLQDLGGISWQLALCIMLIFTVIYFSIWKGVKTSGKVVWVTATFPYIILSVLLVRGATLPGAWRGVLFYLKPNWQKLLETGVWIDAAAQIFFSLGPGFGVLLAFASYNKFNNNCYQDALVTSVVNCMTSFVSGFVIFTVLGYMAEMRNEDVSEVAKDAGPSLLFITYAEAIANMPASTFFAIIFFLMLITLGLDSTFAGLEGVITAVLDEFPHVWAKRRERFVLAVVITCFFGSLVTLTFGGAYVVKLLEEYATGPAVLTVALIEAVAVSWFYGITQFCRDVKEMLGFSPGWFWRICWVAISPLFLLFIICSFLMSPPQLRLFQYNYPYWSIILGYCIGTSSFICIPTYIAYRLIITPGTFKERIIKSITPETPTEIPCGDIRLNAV
T12 sequence (P14416 whole entry): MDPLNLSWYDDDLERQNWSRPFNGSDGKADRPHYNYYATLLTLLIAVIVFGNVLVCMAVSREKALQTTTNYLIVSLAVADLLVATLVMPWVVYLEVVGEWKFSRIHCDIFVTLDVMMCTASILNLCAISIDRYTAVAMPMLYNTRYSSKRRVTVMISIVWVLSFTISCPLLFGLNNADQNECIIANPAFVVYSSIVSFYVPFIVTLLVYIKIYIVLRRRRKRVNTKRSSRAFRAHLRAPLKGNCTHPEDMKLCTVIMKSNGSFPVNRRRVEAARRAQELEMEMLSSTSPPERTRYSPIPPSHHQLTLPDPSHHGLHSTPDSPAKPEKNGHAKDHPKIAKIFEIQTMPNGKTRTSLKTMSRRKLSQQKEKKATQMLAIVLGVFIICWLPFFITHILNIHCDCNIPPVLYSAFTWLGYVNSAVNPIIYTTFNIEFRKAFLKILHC
T8 sequence (P35462 whole entry): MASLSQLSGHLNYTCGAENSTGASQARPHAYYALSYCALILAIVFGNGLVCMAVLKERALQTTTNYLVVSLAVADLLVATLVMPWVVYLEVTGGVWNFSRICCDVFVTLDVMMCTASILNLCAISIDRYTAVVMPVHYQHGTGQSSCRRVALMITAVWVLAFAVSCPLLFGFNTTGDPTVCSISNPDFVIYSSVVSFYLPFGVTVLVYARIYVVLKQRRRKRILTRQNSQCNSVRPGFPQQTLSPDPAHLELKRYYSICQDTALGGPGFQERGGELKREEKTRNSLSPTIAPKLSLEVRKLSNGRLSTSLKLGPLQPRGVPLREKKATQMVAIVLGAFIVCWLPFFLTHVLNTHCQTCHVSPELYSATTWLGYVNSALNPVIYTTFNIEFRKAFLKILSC
T7 sequence (P28565 whole entry): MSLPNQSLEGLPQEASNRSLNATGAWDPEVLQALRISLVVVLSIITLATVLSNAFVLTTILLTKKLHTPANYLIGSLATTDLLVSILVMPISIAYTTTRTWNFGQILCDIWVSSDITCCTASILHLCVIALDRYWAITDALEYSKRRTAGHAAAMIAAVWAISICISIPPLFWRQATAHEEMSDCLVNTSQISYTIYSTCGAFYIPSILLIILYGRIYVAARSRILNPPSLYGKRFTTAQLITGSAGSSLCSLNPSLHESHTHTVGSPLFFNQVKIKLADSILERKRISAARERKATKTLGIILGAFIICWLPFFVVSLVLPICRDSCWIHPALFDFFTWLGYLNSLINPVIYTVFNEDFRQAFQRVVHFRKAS

| Structure (SMILES) | HT2B, percent of control-specific binding (5-HT2B (h)) | HT7, percent of control-specific binding (5-HT7 (h)) | HT1B, percent of control-specific binding (5-HT1B (h)) | Ki (5-HT1A receptor [1]) | Ki (5-HT2A receptor) | HT2C, percent of control-specific binding (5-HT2C (h)) | MT1, percent of control-specific binding (MT1 (ML1A) (h)) | HT1D, percent of control-specific binding (5-HT1D (r)) | D3, percent of control-specific binding (D3 (h)) | inhibition at 10 µM (alpha2A (h)) | EC50 (5-HT1A receptor [2]) | DAT, percent of control-specific binding (DAT (h)) | Ki [3] | D2, percent of control-specific binding (D2 (h)) | NET, percent of control-specific binding (NET (h)) | 5-HT1A receptor engagement (change in cAMP levels), in words (5-HT1A receptor [2]) | SERT binding, binding curve in words [3] | further results |
| --- | --- | --- | --- | --- | --- | --- | --- | --- | --- | --- | --- | --- | --- | --- | --- | --- | --- | --- |
| Brc1cc2c(cc1CCN1CCCC1)OCO2 [A(XXV)] | 76% | 71% | 0% | 0.0635 µM | 7.65 µM | 87% | 1% | 30% | 70% | 61% | 0.342 µM | 11% | 10.9 µM | 21% | 28% |  |  |  |
| FC1(F)Oc2ccc(CCN3CCCC3)cc2O1 [A(XXVIII)] | 15% | 15% | 0% | 1.98 µM | 15.6 µM | 53% | 0% | 1% | 16% | 26% | 374 µM | 0% | 23.7 µM | 6% | 0% |  |  |  |
| OCCNCCc1cc2c(cc1Br)OCO2 [A(XXX)] | 54% | 61% | 0% | 0.295 µM | 11.7 µM | 57% | 0% | 39% | 30% | 6% | 11.7 µM | 0% | 84.3 µM | 4% | 6% |  |  |  |
| CNC(C)Cc1ccc2c(c1)OCO2 (stereo not drawn) [MDMA, reference compound] | 85% | 58% | −21% | 11 µM |  | 96% | 1% | 18% | 18% |  |  | 28% |  | −10% | 3% | mild | bind SERT to varying degrees | Ki (5-HT2A receptor; read-out: 5-HT2A, Ki, competition with 1 nM [3H]ketanserin, test compound 3 nM to 1 mM): 39.9 µM; α-2A, percent of control-specific binding (alpha2A (h)): 27%; EC50 (5-HT1A receptor [2]; reduction of cAMP in +5-HT1A cells stimulated with 4 μM forskolin, 20 min, read-out: 5-HT1A, EC50): > 1000 µM; Ki ([3]; read-out: SERT, Ki): 5.8 µM |
| COc1cc(CCN)cc(OC)c1OC [mescaline, 3,4,5 trimethoxyphenethylamine] | 80% |  | 11% |  |  | 95% | 6% | 70% | −13% | 57% |  | −1% | 406 µM | 3% | −9% | no | SERT binding at higher ligand concentrations |  |

From patent US12428408B2, “Fused heterocyclic mescaline derivatives” (Enveric Biosciences Canada Inc., priority 2022, dated 2025)
